Results from PMC8981980 (Journal of medicinal chemistry, 2022).
“Also recorded” adds a separate entry of the source. Blank lines part the entries; values can stand above or below the molecule they belong to.

Key:
CHD1L = target: T1, CHD1L (Homo sapiens, UniProt Q86WJ1); assay: SAR summary from cat-CHD1L inhibition and cell-based assays; conditions: SAR statement relative to parent / 1-carbon analogs
T1 sequence (Q86WJ1 41-540 limits assumed): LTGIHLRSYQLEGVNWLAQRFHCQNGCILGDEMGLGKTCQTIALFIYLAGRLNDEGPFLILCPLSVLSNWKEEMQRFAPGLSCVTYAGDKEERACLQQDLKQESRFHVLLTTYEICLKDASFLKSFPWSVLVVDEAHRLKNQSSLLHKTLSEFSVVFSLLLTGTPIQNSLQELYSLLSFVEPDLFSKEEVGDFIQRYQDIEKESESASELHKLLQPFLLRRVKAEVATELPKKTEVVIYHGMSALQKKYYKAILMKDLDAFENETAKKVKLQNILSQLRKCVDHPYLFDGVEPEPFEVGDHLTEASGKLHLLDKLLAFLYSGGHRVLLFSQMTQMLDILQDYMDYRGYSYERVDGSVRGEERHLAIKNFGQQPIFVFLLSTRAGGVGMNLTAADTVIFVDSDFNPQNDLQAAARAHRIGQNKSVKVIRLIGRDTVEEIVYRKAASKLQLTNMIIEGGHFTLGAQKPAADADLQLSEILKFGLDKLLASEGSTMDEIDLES

SW620 tumor organoids = assay: SW620 tumor organoid viability; assay type: cell-based; conditions: compared to 6.1, 6.2 and 6.3; SI Table S1
[1] = In vitro mouse microsomal stability; conditions: compared with 6.0 / other tested CHD1Li
[2] = test system: SW620 isolated M-Phenotype flank tumors; assay: Xenograft antitumor efficacy study; assay type: in vivo, athymic nude mice
CSC stemness = conditions: clonogenic colony formation assay; cited from earlier work
[3] = cited from earlier work
[4] = test system: HCT116 M-Phenotype tumor organoids (VimPro-GFP / EcadPro-RFP); assay: EMT dual-reporter 3D high-content imaging, HCT116 M-Phenotype tumor organoids; assay type: cell-based; conditions: as treatment dose increases

biological activity (cat-CHD1L inhibition and cell-based models) (CHD1L): significant loss in activity
SMILES: COc1cnc(N2CCCC2)nc1Nc1ccc(NC(=O)Cc2cccs2)cc1 [6.10, N-(4-((5-methoxy-2-(pyrrolidin-1-yl)pyrimidin-4-yl)amino)phenyl)-2-(thiophen-2-yl)acetamide]

SMILES: Cc1cc(Nc2ccc(NC(=O)c3c[nH]c4ccccc34)cc2)nc(N2CCCC2)n1 [6.4, N-(4-((6-methyl-2-(pyrrolidin-1-yl)pyrimidin-4-yl)amino)phenyl)-1H-indole-3-carboxamide]
cell-based antitumor activity (potency) (SW620 tumor organoids): maintained potency | metabolic stability to mouse liver microsomes [1]: increased the metabolic stability

biological activity (cat-CHD1L inhibition and cell-based models) (CHD1L): significant loss in biological activity
SMILES: Cc1cc(Nc2ccc(NC(=O)Cc3cccs3)cc2)nc(N2CCOCC2)n1 [6.15, N-(4-((6-methyl-2-morpholinopyrimidin-4-yl)amino)phenyl)-2-(thiophen-2-yl)acetamide]

biological activity (cat-CHD1L inhibition and cell-based models) (CHD1L): loss of inhibitor activity
SMILES: O=C(Cc1cccs1)Nc1ccc(Nc2nc(N3CCCC3)ncc2F)cc1 [6.2, N-(4-((5-fluoro-2-(pyrrolidin-1-yl)pyrimidin-4-yl)amino)phenyl)-2-(thiophen-2-yl)acetamide]

biological activity (cat-CHD1L inhibition and cell-based models) (CHD1L): loss of activity
SMILES: Cc1cc(Nc2ccc(NC(=O)CCCc3c[nH]c4ccccc34)cc2)nc(N2CCCC2)n1 [6.7, 4-(1H-indol-3-yl)-N-(4-((6-methyl-2-(pyrrolidin-1-yl)pyrimidin-4-yl)amino)phenyl)butanamide]

SMILES: Cc1cc(Nc2ccc(NC(=O)Cc3cc(Br)cs3)cc2)nc(N2CCCC2)n1 [6.11, 2-(4-bromothiophen-2-yl)-N-(4-((6-methyl-2-(pyrrolidin-1-yl)pyrimidin-4-yl)amino)phenyl) acetamide]
tolerability / gross toxicity ([2]; PO 75 mg/kg and 125 mg/kg 5-days/week over 30 days): no adverse gross toxicity | tumor volume ([2]; PO 75 mg/kg and 125 mg/kg 5-days/week over 30 days, from day 20, highly significant after 28 days, vs vehicle): significant decrease in tumor volume | body weight ([2]; during the treatment period, PO 28 days): increased body weight | biological activity (cat-CHD1L inhibition and cell-based models) (CHD1L): most promising in vitro biological activity | metabolic stability to mouse liver microsomes [1]: most metabolically stable; also recorded: increased the metabolic stability

SMILES: Cc1cc(Nc2ccc(NC(=O)Cc3cc(Cl)nc4ccccc34)cc2)nc(N2CCCC2)n1 [6.31]
metabolic stability to mouse liver microsomes [1]: increased the metabolic stability

SMILES: Cc1cc(Nc2ccc(NC(=O)CCc3c[nH]c4ccccc34)cc2)nc(N2CCCC2)n1 [6.6, 3-(1H-indol-3-yl)-N-(4-((6-methyl-2-(pyrrolidin-1-yl)pyrimidin-4-yl)amino)phenyl) propanamide]
biological activity (cat-CHD1L inhibition and cell-based models) (CHD1L): loss of activity

SMILES: Cc1cc(Nc2ccc(NC(=O)Cc3cccs3)cc2)nc(N2CCCC2)n1 [6.0, N-(4-((6-methyl-2-(pyrrolidine-1-yl)pyrimidin-4-yl)amino)phenyl)-2-(thiophen-2-yl)acetamide]
CSC stemness (CSC stemness): significantly inhibits CSC stemness | maximum tolerated dose ([3]; intraperitoneal (IP) daily over five days): 50 mg/kg | liver toxicity ([3]; mice, 50 mg/kg IP daily over five days): does not display any liver toxicity

SMILES: Cc1cc(Nc2ccc(NC(=O)/C=C/c3c[nH]c4ccccc34)cc2)nc(N2CCCC2)n1 [6.8, (E)-3-(1H-indol-3-yl)-N-(4-((6-methyl-2-(pyrrolidin-1-yl)pyrimidin-4-yl)amino)phenyl) acrylamide]
biological activity (cat-CHD1L inhibition and cell-based models) (CHD1L): restores activity

SMILES: Cc1nc(N2CCCC2)nc(Nc2ccc(NC(=O)Cc3cccs3)cc2)c1F [6.1, N-(4-((5-fluoro-6-methyl-2-(pyrrolidin-1-yl)pyrimidin-4-yl)amino)phenyl)-2-(thiophen-2-yl)acetamide]
biological activity (cat-CHD1L inhibition and cell-based models) (CHD1L): loss of inhibitor activity; also recorded: significant loss in activity

SMILES: Cc1nc(N2CCCC2)nc(N(C)c2ccc(NC(=O)Cc3cccs3)cc2)c1F [6.3, N-(4-((5-fluoro-6-methyl-2-(pyrrolidin-1-yl)pyrimidin-4-yl)(methyl)amino)phenyl)-2-(thiophen-2-yl)acetamide]
biological activity (cat-CHD1L inhibition and cell-based models) (CHD1L): loss of inhibitor activity; also recorded: diminished biological activity

biological activity (cat-CHD1L inhibition and cell-based models) (CHD1L): significant loss of activity
SMILES: Cc1cc(Oc2ccc(NC(=O)c3c[nH]c4ccccc34)cc2)nc(N2CCCC2)n1 [6.14, N-(4-((6-methyl-2-(pyrrolidin-1-yl)pyrimidin-4-yl)oxy)phenyl)-1H-indole-3-carboxamide]

biological activity (cat-CHD1L inhibition and cell-based models) (CHD1L): significant loss of activity
SMILES: Cc1cc(Oc2ccc(NC(=O)Cc3cccs3)cc2)nc(N2CCCC2)n1 [6.13, N-(4-((6-methyl-2-(pyrrolidin-1-yl)pyrimidin-4-yl)oxy)phenyl)-2-(thiophen-2-yl)acetamide]

SMILES: Cc1cc(Nc2ccc(NC(=O)Cc3c[nH]c4ccccc34)cc2)nc(N2CCCC2)n1 [6.5, 2-(1H-indol-3-yl)-N-(4-((6-methyl-2-(pyrrolidin-1-yl)pyrimidin-4-yl)amino)phenyl)acetamide]
metabolic stability to mouse liver microsomes [1]: increased the metabolic stability | EcadPro-RFP promoter activity [4]: upregulation | VimPro-GFP promoter activity [4]: marked downregulation

biological activity (cat-CHD1L inhibition and cell-based models) (CHD1L): significant loss of activity
SMILES: Cc1cc(Oc2ccc(NC(=O)Cc3cccs3)cc2)nc(Cl)n1 [6.12, N-(4-((2-chloro-6-methylpyrimidin-4-yl)oxy)phenyl)-2-(thiophen-2-yl)acetamide]
